Data as given in PMC7469689, “Substituted 4,5′-Bithiazoles as Catalytic Inhibitors of Human DNA Topoisomerase IIα” (Journal of Chemical Information and Modeling, 2020).

How the values were obtained:
HepG2 cells [1] = test: DNA double-strand break induction, γ-H2AX assay; type: cell-based, human
HepG2 cells [2] = test: Cell proliferation, Ki67 flow cytometry; type: cell-based, human; settings: 24 h, 50 μM
human topo IIα [3] = target: T1, human topo IIα (Homo sapiens, UniProt P11388); test: HTS relaxation assay of human topo IIα; type: biochemical
T1 construct: purchased Inspiralis (Norwich, U.K.)

human topo IIα [4] = target: T1, human topo IIα; test: Human topoisomerase II competitive ATPase assay; type: biochemical
Method: The human topo competitive ATPase assay was executed at Inspiralis (Norwich, U.K.). The compound was analyzed using a kinase/lactate dehydrogenase assay as described above.
A mixture of the assay buffer (20 mM Tris–HCl, 5 mM magnesium acetate, 125 mM potassium acetate, 2 mM DTT, pH 7.9), linear pBR322 (1.5 μL of 1 mg/mL per assay), phosphoenol pyruvate (0.5 μL of 80 mM per assay), pyruvate kinase/lactate dehydrogenase mix (0.75 μL per assay), NADH (1 μL of 20 mM per assay), DMSO (1.5 μL per assay), and water (32.85 μL per assay) was prepared. This mixture (41.1 μL) was put into the wells of a 384-well microtiter plate. DMSO (0.5 μL) or the diluted investigated compound in the DMSO was added to the wells and mixed. Subsequently, 5 μL of the dilution buffer or human topo IIα (12 nM final concentration) was added and mixed. Before the run, a prerun was done where we added 3.4 μL of the appropriate concentration of ATP and monitored the OD340 for up to 35 min. The assay temperature was 37 °C. Two negative controls (4% DMSO and dilution buffer without enzyme) were used in the presence of 2 mM ATP. The ATP concentrations in this assay were 0.025, 0.05, 0.075, 0.1, 0.25, 0.5, 0.75, and 1 mM. The assays were executed in duplicate at 3.9, 31, 50, 75, and 100 μM final concentrations of the investigated compound 1. DMSO has a final concentration of 4% (v/v) in all of the reactions.
8. Human topoisomerase II ATPase assays at different concentration of the ATP – Competitive ATPase assay
The spectrophotometer produces an output as change in OD340 with time (data not shown).
The data from the runs after the addition of the ATP were plotted after adjusting the starting OD340 to zero. Lines are fitted to these by linear regression and the rates (OD change/min) calculated. The rates for each ATP and inhibitor concentration were then calculated as μM ATP hydrolysed/min using an extinction coefficient of 6.22 M-1 cm-1 and a path length of 0.5 cm. The rates were then plotted against the ATP concentration and curves fitted to the data using the hyperbolic equation y=(ax/(b+x) where y = rate, x = [ATP], a = Vmax and b=Km.
Using the equation y=y0+(ax/(b+x)) it was possible to solve it and obtain values. […]
concentrations after subtraction of the background rate and calculated Km (mM ATP) and Vmax (μM ATP/min) values. They were calculated from equation y = (ax /(b+x) where y = rate, x = [ATP], a = Vmax.
Rates for controls without enzyme in the presence of 2 mM ATP (μmol/min) […]
Rates (μmol/min) at different ATP concentrations (mM) after subtraction of background […]
Calculated Km (mM ATP) and Vmax (μM ATP/min) values

human topo IIβ = target: T2, human topo IIβ (Homo sapiens, UniProt Q02880); test: Human topo IIβ-mediated kDNA decatenation assay; type: biochemical
T2 construct: purchased Inspiralis (Norwich, U.K.)
Method: We were also interested in whether compounds can act on both isoforms of the human topo II. Thus, we performed human topo IIβ decatenation assays for compounds 1 and 9. […] (see also Tables S5 and S6 for more details).
(§1) We made use of the human topo II decatenation assay kit from Inspiralis (Norwich, U.K.) to assess the ability of selected compounds to impede DNA decatenation.[89],[90] It was performed for topo IIα and topo IIβ isoforms using the protocol as described previously.[35]

human topo IIα [5] = target: T1, human topo IIα; test: ATPase activity (ATP hydrolysis) assay, pyruvate kinase/lactate dehydrogenase coupled; type: biochemical
human topo IIα [6] = target: T1, human topo IIα; test: Human topo IIα-mediated kDNA decatenation assay; type: biochemical
Method: as §1

HepG2 cells [7] = test: Cell cycle analysis by flow cytometry; type: cell-based, human; settings: 24 h
[8] = 500 μM (compound 1: solubility problems, erratic readings)

T1 sequence (P11388 whole entry): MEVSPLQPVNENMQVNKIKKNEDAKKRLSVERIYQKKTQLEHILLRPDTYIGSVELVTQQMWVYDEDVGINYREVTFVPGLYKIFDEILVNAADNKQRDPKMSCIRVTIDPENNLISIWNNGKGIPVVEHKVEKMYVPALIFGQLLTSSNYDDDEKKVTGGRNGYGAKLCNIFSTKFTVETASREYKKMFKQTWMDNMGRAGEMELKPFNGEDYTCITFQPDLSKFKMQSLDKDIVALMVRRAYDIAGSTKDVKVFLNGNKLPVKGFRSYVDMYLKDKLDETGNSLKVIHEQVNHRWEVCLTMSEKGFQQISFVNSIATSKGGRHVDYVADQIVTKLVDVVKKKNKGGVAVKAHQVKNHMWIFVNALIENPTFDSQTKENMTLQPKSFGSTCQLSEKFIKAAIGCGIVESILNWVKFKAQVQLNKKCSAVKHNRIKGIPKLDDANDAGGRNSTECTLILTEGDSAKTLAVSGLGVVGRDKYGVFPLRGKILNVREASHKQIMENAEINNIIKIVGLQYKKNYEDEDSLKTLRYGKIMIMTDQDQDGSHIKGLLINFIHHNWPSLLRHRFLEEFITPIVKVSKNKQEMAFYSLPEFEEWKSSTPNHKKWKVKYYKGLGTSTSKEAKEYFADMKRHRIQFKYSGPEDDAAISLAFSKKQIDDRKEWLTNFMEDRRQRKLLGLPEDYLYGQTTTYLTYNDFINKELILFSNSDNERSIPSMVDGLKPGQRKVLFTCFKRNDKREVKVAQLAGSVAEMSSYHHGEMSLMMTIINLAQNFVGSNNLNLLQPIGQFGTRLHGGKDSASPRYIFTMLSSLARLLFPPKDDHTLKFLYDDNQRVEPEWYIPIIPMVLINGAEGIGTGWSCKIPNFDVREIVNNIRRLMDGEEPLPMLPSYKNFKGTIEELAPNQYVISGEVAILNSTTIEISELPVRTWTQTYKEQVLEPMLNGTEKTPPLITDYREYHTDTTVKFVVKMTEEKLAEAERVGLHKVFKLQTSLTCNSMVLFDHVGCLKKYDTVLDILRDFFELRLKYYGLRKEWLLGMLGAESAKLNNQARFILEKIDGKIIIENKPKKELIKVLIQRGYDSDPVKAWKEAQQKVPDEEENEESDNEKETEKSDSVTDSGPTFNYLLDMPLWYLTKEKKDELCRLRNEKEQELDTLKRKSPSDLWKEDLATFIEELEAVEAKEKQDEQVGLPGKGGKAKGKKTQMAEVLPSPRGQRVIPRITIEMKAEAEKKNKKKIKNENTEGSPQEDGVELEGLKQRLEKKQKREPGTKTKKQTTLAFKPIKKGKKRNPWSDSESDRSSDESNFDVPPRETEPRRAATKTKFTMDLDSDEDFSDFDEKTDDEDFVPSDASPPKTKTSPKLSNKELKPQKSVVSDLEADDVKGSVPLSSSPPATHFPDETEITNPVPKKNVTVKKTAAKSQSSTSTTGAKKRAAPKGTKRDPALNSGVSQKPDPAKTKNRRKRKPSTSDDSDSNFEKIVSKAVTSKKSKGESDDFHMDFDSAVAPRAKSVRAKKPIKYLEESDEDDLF
T2 sequence (Q02880 whole entry): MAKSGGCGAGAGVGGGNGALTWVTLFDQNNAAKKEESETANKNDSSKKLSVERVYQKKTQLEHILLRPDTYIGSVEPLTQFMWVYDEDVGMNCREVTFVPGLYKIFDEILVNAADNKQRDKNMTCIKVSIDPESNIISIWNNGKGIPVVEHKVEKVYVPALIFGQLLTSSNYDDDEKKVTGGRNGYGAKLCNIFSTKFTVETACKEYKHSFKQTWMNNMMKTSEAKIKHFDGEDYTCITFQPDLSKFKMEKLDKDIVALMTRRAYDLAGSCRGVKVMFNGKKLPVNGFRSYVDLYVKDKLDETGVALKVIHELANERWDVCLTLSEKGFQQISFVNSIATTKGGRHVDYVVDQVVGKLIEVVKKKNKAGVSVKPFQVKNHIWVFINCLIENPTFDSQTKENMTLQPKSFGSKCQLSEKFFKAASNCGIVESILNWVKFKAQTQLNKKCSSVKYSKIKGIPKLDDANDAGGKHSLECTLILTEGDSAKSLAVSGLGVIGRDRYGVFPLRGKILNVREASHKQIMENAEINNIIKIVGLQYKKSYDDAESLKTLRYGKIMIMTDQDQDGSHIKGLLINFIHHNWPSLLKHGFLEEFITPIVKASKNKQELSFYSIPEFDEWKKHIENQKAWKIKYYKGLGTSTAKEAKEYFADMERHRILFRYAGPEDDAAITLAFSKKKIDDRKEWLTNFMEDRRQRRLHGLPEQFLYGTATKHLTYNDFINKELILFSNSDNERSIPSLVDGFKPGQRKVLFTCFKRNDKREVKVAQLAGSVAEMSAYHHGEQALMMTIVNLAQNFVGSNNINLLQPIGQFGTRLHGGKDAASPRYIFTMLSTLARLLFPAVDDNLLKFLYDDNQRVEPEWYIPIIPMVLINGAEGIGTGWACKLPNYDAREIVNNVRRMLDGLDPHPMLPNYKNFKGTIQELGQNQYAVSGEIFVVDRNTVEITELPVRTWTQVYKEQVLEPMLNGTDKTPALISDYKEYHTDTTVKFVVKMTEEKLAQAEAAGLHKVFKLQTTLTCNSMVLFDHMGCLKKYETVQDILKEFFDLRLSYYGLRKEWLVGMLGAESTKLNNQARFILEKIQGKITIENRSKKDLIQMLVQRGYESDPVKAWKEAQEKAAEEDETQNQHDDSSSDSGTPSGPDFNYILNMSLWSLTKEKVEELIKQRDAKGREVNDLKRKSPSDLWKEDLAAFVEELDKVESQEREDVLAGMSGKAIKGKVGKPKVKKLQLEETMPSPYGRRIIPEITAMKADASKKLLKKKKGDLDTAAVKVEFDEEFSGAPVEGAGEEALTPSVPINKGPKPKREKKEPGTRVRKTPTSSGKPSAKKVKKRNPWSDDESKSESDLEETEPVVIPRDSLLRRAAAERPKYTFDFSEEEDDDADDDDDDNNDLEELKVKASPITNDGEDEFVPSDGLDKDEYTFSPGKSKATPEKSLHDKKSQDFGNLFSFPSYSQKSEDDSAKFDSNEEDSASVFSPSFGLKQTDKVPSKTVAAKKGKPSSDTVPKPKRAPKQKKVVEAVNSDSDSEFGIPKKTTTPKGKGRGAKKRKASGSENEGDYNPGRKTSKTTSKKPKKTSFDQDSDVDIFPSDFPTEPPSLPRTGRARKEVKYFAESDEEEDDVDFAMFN

IC50 (human topo IIα [3]): 33.4 µM
IC50 (human topo IIα [4]; ATP 0.025 (mM per method), fit R^2 0.474, read-out: IC50 at c(ATP) 0.025): 0.0038 mM
IC50 (human topo IIα [4]; ATP 0.05 (mM per method), read-out: IC50 at c(ATP) 0.05): 0.0088 mM
IC50 (human topo IIα [4]; ATP 0.075 (mM per method), read-out: IC50 at c(ATP) 0.075): 0.0148 mM
IC50 (human topo IIα [4]; ATP 0.1 (mM per method), read-out: IC50 at c(ATP) 0.1): 0.0094 mM
IC50 (human topo IIα [4]; ATP 0.25 (mM per method), read-out: IC50 at c(ATP) 0.25): 0.0183 mM
IC50 (human topo IIα [4]; ATP 0.5 (mM per method), read-out: IC50 at c(ATP) 0.5): 0.0152 mM
IC50 (human topo IIα [4]; ATP 0.75 (mM per method), read-out: IC50 at c(ATP) 0.75): 0.0178 mM
IC50 (human topo IIα [4]; ATP 1 (mM per method), read-out: IC50 at c(ATP) 1): 0.0216 mM
IC50 (human topo IIα [4]; ATP 2 (mM per method), read-out: IC50 at c(ATP) 2): 0.0254 mM
Calculated Vmax (human topo IIα [4]; compound 3.9 μM): 2.97 μM ATP/min
Rate of ATP hydrolysis after subtraction of background (human topo IIα [4]; compound 3.9 μM, ATP 0.025 mM): 0.064 µmol/min
Rate of ATP hydrolysis after subtraction of background (human topo IIα [4]; compound 3.9 μM, ATP 0.05 mM): 0.257 µmol/min
Rate of ATP hydrolysis after subtraction of background (human topo IIα [4]; compound 3.9 μM, ATP 0.075 mM): 0.354 µmol/min
Rate of ATP hydrolysis after subtraction of background (human topo IIα [4]; compound 3.9 μM, ATP 0.1 mM): 0.450 µmol/min
Rate of ATP hydrolysis after subtraction of background (human topo IIα [4]; compound 3.9 μM, ATP 0.25 mM): 1.158 µmol/min
Rate of ATP hydrolysis after subtraction of background (human topo IIα [4]; compound 3.9 μM, ATP 0.5 mM): 1.479 µmol/min
Rate of ATP hydrolysis after subtraction of background (human topo IIα [4]; compound 3.9 μM, ATP 0.75 mM): 1.801 µmol/min
Rate of ATP hydrolysis after subtraction of background (human topo IIα [4]; compound 3.9 μM, ATP 1 mM): 1.897 µmol/min
Rate of ATP hydrolysis after subtraction of background (human topo IIα [4]; compound 3.9 μM, ATP 2 mM): 2.444 µmol/min
Calculated Vmax (human topo IIα [4]; compound 31 μM): 1.9 μM ATP/min
Rate of ATP hydrolysis after subtraction of background (human topo IIα [4]; compound 31 μM, ATP 0.05 mM): 0.032 µmol/min
Rate of ATP hydrolysis after subtraction of background (human topo IIα [4]; compound 31 μM, ATP 0.075 mM): 0.096 µmol/min
Rate of ATP hydrolysis after subtraction of background (human topo IIα [4]; compound 31 μM, ATP 0.1 mM): 0.161 µmol/min
Rate of ATP hydrolysis after subtraction of background (human topo IIα [4]; compound 31 μM, ATP 0.25 mM): 0.450 µmol/min
Rate of ATP hydrolysis after subtraction of background (human topo IIα [4]; compound 31 μM, ATP 0.5 mM): 0.707 µmol/min
Rate of ATP hydrolysis after subtraction of background (human topo IIα [4]; compound 31 μM, ATP 0.75 mM): 0.868 µmol/min
Rate of ATP hydrolysis after subtraction of background (human topo IIα [4]; compound 31 μM, ATP 1 mM): 1.061 µmol/min
Rate of ATP hydrolysis after subtraction of background (human topo IIα [4]; compound 31 μM, ATP 2 mM): 1.286 µmol/min
Calculated Vmax (human topo IIα [4]; compound 50 μM): 2.77 μM ATP/min
Rate of ATP hydrolysis after subtraction of background (human topo IIα [4]; compound 50 μM, ATP 0.025 mM): 0.000 µmol/min
Rate of ATP hydrolysis after subtraction of background (human topo IIα [4]; compound 50 μM, ATP 0.05 mM): 0.096 µmol/min
Rate of ATP hydrolysis after subtraction of background (human topo IIα [4]; compound 50 μM, ATP 0.075 mM): 0.129 µmol/min
Rate of ATP hydrolysis after subtraction of background (human topo IIα [4]; compound 50 μM, ATP 0.1 mM): 0.032 µmol/min
Rate of ATP hydrolysis after subtraction of background (human topo IIα [4]; compound 50 μM, ATP 0.25 mM): 0.193 µmol/min
Rate of ATP hydrolysis after subtraction of background (human topo IIα [4]; compound 50 μM, ATP 0.5 mM): 0.450 µmol/min
Rate of ATP hydrolysis after subtraction of background (human topo IIα [4]; compound 50 μM, ATP 0.75 mM): 0.707 µmol/min
Rate of ATP hydrolysis after subtraction of background (human topo IIα [4]; compound 50 μM, ATP 1 mM): 0.772 µmol/min
Rate of ATP hydrolysis after subtraction of background (human topo IIα [4]; compound 50 μM, ATP 2 mM): 1.222 µmol/min
Calculated Vmax (human topo IIα [4]; compound 75 μM): 1.94 μM ATP/min
Rate of ATP hydrolysis after subtraction of background (human topo IIα [4]; compound 75 μM, ATP 0.025 mM): 0.096 µmol/min
Rate of ATP hydrolysis after subtraction of background (human topo IIα [4]; compound 75 μM, ATP 0.05 mM): 0.032 µmol/min
Rate of ATP hydrolysis after subtraction of background (human topo IIα [4]; compound 75 μM, ATP 0.1 mM): 0.064 µmol/min
Rate of ATP hydrolysis after subtraction of background (human topo IIα [4]; compound 75 μM, ATP 0.25 mM): 0.225 µmol/min
Rate of ATP hydrolysis after subtraction of background (human topo IIα [4]; compound 75 μM, ATP 0.5 mM): 0.322 µmol/min
Rate of ATP hydrolysis after subtraction of background (human topo IIα [4]; compound 75 μM, ATP 0.75 mM): 0.386 µmol/min
Rate of ATP hydrolysis after subtraction of background (human topo IIα [4]; compound 75 μM, ATP 1 mM): 0.354 µmol/min
Rate of ATP hydrolysis after subtraction of background (human topo IIα [4]; compound 75 μM, ATP 2 mM): 0.740 µmol/min
Calculated Vmax (human topo IIα [4]; compound 100 μM): 3.07 μM ATP/min
Rate of ATP hydrolysis after subtraction of background (human topo IIα [4]; compound 100 μM, ATP 0.025 mM): 0.064 µmol/min
Rate of ATP hydrolysis after subtraction of background (human topo IIα [4]; compound 100 μM, ATP 0.05 mM): 0.032 µmol/min
Rate of ATP hydrolysis after subtraction of background (human topo IIα [4]; compound 100 μM, ATP 0.075 mM): 0.000 µmol/min
Rate of ATP hydrolysis after subtraction of background (human topo IIα [4]; compound 100 μM, ATP 0.1 mM): 0.032 µmol/min
Rate of ATP hydrolysis after subtraction of background (human topo IIα [4]; compound 100 μM, ATP 0.25 mM): 0.064 µmol/min
Rate of ATP hydrolysis after subtraction of background (human topo IIα [4]; compound 100 μM, ATP 0.5 mM): 0.418 µmol/min
Rate of ATP hydrolysis after subtraction of background (human topo IIα [4]; compound 100 μM, ATP 0.75 mM): 0.289 µmol/min
Rate of ATP hydrolysis after subtraction of background (human topo IIα [4]; compound 100 μM, ATP 1 mM): 0.354 µmol/min
Rate of ATP hydrolysis after subtraction of background (human topo IIα [4]; compound 100 μM, ATP 2 mM): 0.772 µmol/min
inhibition of decatenation (human topo IIβ; 125 μM): completely inhibited
inhibition of decatenation (human topo IIβ; 500 μM): completely inhibited
Percentage ATPase activity Run 1 (human topo IIα [5]; 3.9 μM): 92.25%
Percentage ATPase activity Run 2 (human topo IIα [5]; 3.9 μM): 88.37%
Percentage ATPase activity Run 1 (human topo IIα [5]; 31.5 μM): 96.12%
Percentage ATPase activity Run 2 (human topo IIα [5]; 31.5 μM): 94.57%
Percentage ATPase activity Run 1 (human topo IIα [5]; 125 μM): 24.81%
Percentage ATPase activity Run 2 (human topo IIα [5]; 125 μM): 16.28%
inhibition of topo IIα-mediated ATP hydrolysis (in words) (human topo IIα [5]; 125 μM): almost fully inhibited
Percentage ATPase activity Run 1 (human topo IIα [5]; [8]): 65.12%
Percentage ATPase activity Run 2 (human topo IIα [5]; [8]): 36.43%
% Decatenated Average (human topo IIα [6]; 31.5 μM): 80.9%
inhibition of decatenation (human topo IIα [6]; 125 μM): complete inhibition
inhibition of decatenation (human topo IIα [6]; 500 μM): complete inhibition
Compound: Cc1nc(N)sc1-c1csc(Nc2ccc(C(F)(F)F)cc2)n1 [Compound 1]
induction of DNA double-strand breaks (γH2AX) (HepG2 cells [1]; 10 μM): did not induce an increase in DNA-DSB formation
induction of DNA double-strand breaks (γH2AX) (HepG2 cells [1]; 50 μM): did not induce an increase in DNA-DSB formation
cell proliferation (Ki67) (HepG2 cells [2]): 65.1%
cell cycle arrest (in words) (HepG2 cells [7]): cell cycle arrest in the G1 phase
